The target of data set [1] is Prothrombin (Bos taurus, UniProt P00735).
Description: Compound was tested for inhibitory activity against bovine thrombin
A further data set concerns the target Coagulation factor X (Homo sapiens, UniProt P00742). The data set can be described thus: The compound was tested for inhibitory activity against Coagulation factor X.
Data set [2] can be described thus: Half life was evaluated in dog. It is filed as ADME, organism-based, Canis lupus familiaris. Conditions: in vivo.
A further data set has as its target Plasminogen (Homo sapiens, UniProt P00747). The data set can be described thus: The compound was tested for inhibitory activity against human plasmin.
Data set [3] in a line: Compound was tested for percent of oral bioavailability at 10 […] dose in dogs. Format: ADME, organism-based, Canis lupus familiaris. Conditions: dog, in vivo, read-out: Bioavailabiility.
Data set [4] addresses Prothrombin (Homo sapiens, UniProt P00734). The experiment in a line: Compound was tested for inhibitory activity against human thrombin.
For data set [5], the target named is Tissue-type plasminogen activator (Homo sapiens, UniProt P00750). The experiment in a line: The compound was tested for inhibitory activity against tissue plasminogen activator.
Chain of Tissue-type plasminogen activator (P00750 whole entry): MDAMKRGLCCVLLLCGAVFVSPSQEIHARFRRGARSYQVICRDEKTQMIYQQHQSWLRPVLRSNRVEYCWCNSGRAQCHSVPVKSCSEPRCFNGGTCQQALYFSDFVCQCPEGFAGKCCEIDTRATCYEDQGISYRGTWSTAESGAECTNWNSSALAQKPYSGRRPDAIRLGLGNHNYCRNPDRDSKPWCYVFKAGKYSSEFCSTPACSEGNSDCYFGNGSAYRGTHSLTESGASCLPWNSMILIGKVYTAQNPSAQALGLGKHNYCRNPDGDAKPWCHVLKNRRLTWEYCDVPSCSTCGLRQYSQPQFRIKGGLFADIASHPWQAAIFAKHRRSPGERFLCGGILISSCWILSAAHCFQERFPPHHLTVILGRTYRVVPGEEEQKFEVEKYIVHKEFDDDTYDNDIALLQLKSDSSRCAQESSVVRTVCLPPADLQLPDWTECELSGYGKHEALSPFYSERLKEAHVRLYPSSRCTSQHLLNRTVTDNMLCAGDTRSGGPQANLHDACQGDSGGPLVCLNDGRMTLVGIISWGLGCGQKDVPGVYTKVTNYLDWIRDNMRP

Chain of Coagulation factor X (P00742 41-179 limits assumed): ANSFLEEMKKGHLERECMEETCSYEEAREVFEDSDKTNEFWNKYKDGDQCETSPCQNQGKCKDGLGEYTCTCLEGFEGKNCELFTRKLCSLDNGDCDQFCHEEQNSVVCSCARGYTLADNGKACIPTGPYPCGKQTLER
Chain of Coagulation factor X (P00742 235-488 limits assumed): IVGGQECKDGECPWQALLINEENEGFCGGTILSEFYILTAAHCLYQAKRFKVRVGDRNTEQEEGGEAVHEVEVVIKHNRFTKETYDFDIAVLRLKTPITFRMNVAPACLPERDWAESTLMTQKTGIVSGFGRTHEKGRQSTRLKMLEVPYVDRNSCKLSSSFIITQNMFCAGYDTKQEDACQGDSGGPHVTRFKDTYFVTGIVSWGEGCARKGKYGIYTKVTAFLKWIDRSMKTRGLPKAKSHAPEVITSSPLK
Chain of Plasminogen (P00747 97-580 limits assumed): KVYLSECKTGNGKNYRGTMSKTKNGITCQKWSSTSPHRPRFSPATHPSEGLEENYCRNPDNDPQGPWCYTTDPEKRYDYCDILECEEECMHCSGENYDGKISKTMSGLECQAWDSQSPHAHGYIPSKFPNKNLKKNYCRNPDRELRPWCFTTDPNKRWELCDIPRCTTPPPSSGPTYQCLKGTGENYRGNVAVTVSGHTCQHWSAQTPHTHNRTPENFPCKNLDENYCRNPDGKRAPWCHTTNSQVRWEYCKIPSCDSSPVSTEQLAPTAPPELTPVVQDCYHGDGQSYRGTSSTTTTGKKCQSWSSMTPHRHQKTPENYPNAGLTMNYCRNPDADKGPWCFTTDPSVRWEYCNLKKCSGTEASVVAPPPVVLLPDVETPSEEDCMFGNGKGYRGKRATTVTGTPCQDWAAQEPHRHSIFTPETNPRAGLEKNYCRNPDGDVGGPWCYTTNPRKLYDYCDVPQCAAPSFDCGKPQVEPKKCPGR
Chain of Plasminogen (P00747 581-810 limits assumed): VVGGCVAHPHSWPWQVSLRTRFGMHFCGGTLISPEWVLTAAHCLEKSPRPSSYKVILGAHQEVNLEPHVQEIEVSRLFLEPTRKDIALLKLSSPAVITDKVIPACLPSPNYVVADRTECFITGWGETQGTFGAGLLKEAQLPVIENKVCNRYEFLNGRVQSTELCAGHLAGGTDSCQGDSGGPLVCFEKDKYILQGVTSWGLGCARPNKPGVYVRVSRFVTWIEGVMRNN

The term Ki denotes the equilibrium dissociation constant of an inhibitor or competing ligand from its target. Low readings indicate tighter binding, high ones weaker binding. In the case of `NN=C(N)c1ccc(C[C@H](NS(=O)(=O)c2ccc3ccccc3c2)C(=O)N(CCO)C2CCCC2)cc1`, the affinity on Prothrombin [1], expressed as Ki, was 7040 nM. In other words, the single-digit micromolar range.
At Prothrombin [1], `N=C(NN)c1ccc(C[C@H](NS(=O)(=O)c2ccc3ccccc3c2)C(=O)N2CCCCCC2)cc1` came in with a Ki of 1470 nM. Compared with the last compound, the Ki is about 4.8-fold lower.
For orientation: half-life means the time in which the quantity being followed falls by half. Low values mean rapid decline, high ones slow decline. Regarding `CN(C(=O)[C@H](Cc1ccc(C(=N)NN)cc1)NS(=O)(=O)c1ccc2ccccc2c1)C1CCCC1`, the inhibitory constant (Ki) at Coagulation factor X worked out at 1100 nM; on Prothrombin [1], 1.1 nM; at Plasminogen, 47900 nM; on Prothrombin [4], 0.38 nM; in data set [5] it was 27200 nM. This compound also registered a half-life in data set [2] of 1.87 h. Besides, the bioavailability in data set [3] stood at 58%.
The compound `CCN(C(=O)[C@H](Cc1ccc(C(=N)NN)cc1)NS(=O)(=O)c1ccc2ccccc2c1)C1CCCC1` displayed a Ki at Prothrombin [1] of 4 nM.

For the origin of these results see ChEMBL document CHEMBL1131651, “Discovery of LB30057, a benzamidrazone-based selective oral thrombin inhibitor” (Bioorg Med Chem Lett, 1998).
